In patent US20080207708A1, “Oxazole and Thiazole Compounds and Their Use in the Treatment of Pge2 Mediated Disorders” (GLAXO GROUP LIMITED, priority 2005, published 2008):

Experiments:
EP1 receptors [1] = target: T1, EP1 receptors (Homo sapiens, UniProt P34995); test: human EP1 calcium mobilisation assay (CHO-K1 cells, FLIPR, PGE2); type: cell-based; set-up: expressed in transfected cells; host or cells: CHO-K1 cells, pCIN vector; conditions: free bases or sodium salts; averages of a number of experiments; read-out: functional pKi value, human EP1 calcium mobilisation assay (converted)
T1 sequence (P34995 1-402): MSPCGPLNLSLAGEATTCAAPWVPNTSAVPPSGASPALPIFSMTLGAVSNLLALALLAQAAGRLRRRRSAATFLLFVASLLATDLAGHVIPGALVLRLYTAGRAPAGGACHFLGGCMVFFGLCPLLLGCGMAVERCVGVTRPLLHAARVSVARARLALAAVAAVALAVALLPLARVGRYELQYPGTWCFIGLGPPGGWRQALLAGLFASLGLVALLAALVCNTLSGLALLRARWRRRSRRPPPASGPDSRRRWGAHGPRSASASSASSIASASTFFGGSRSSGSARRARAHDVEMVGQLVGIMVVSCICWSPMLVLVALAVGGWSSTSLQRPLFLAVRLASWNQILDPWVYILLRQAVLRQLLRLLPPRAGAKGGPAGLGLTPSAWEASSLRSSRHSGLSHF
Method: Briefly, the antagonist properties of compounds are assessed by their ability to inhibit the mobilisation of intracellular calcium ([Ca^2+]i) in response to activation of EP1 or EP3 receptors by the natural agonist hormone prostaglandin E2 (PGE2). Increasing concentrations of antagonist reduce the amount of calcium that a given concentration of PGE2 can mobilise. The net effect is to displace the PGE2 concentration-effect curve to higher concentrations of PGE2. The amount of calcium produced is assessed using a calcium-sensitive fluorescent dye such as Fluo-4, AM and a suitable instrument such as a Fluorimetric Imaging Plate Reader (FLIPR). Increasing amounts of [Ca^2+]i produced by receptor activation increase the amount of fluorescence produced by the dye and give rise to an increasing signal. The signal may be detected using the FLIPR instrument and the data generated may be analysed with suitable curve-fitting software.
The human EP1 or EP3 calcium mobilisation assay (hereafter referred to as ‘the calcium assay’) utilises Chinese hamster ovary-K1 (CHO-K1) cells into which a stable (pCIN; BioTechniques 20 (1996): 102-110) vector containing either EP1 or EP3 cDNA has previously been transfected. Cells are cultured in suitable flasks containing culture medium such as DMEM:F-12 supplemented with 10% v/v foetal calf serum, 2 mM L-glutamine, 0.25 mg/ml geneticin, 100 μM flurbiprofen and 10 µg/ml puromycin. For assay, cells are harvested using a proprietary reagent that dislodges cells such as Versene. Cells are re-suspended in a suitable quantity of fresh culture media for introduction into a 384-well plate. Following incubation for 24 hours at 37° C. the culture media is replaced with a medium containing Fluo-4 and the detergent pluronic acid, and a further incubation takes place. Concentrations of compounds are then added to the plate in order to construct concentration-effect curves. This may be performed on the FLIPR in order to assess the agonist properties of the compounds. Concentrations of PGE2 are then added to the plate in order to assess the antagonist properties of the compounds. The data so generated may be analysed by means of a computerised curve-fitting routine. The concentration of compound that elicits a half-maximal inhibition of the calcium mobilisation induced by PGE2 (pIC50) may then be estimated.

EP1 receptors [2] = target: T1, EP1 receptors; test: Binding assay for the human prostanoid EP1 receptor (competition with [3H]-PGE2); set-up: expressed in transfected cells; host or cells: CHO-K1 cells, membrane fraction; conditions: [3H]-PGE2 competition; averages of a number of experiments; read-out: pIC50 value, binding assay for the human prostanoid EP1 receptor (converted)
Method in brief: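 Competition against 3 nM (final) tritiated PGE2 at 30° C for 30 min, pH 6 MES assay buffer, using membranes of stably transfected CHO-K1 cells. Filter-retained counts by scintillation; nonlinear curve fitting gives concentration inhibiting 50% of specific binding.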

Row | Ki (EP1 receptors [1]) | IC50 (EP1 receptors [2]) | Structure (SMILES)
1 | < 1 µM | ≤ 1 µM | CC(C(=O)O)c1csc(-c2cc(Cl)ccc2OCc2ccccc2)n1 (stereo not shown) [Example 46, Sodium 2-(2-{5-chloro-2-[(phenylmethyl)oxy]phenyl}-1,3-thiazol-4-yl)propanoate]
2 | < 1 µM | ≤ 1 µM | CC(C(=O)O)c1csc(-c2cc(Br)ccc2OCc2ccccc2)n1 (stereo not shown) [Example 47, Sodium 2-(2-{5-bromo-2-[(phenylmethyl)oxy]phenyl}-1,3-thiazol-4-yl)propanoate]
3 | < 1 µM | ≤ 1 µM | CC(C)(C(=O)O)c1csc(-c2cc(Cl)ccc2OCc2ccccc2)n1 [Example 48, Sodium 2-(2-{5-chloro-2-[(phenylmethyl)oxy]phenyl}-1,3-thiazol-4-yl)-2-methylpropanoate]
4 | < 1 µM | ≤ 1 µM | CC(C)(C(=O)O)c1csc(-c2cc(Br)ccc2OCc2ccccc2)n1 [Example 49, Sodium 2-(2-{5-bromo-2-[(phenylmethyl)oxy]phenyl}-1,3-thiazol-4-yl)-2-methylpropanoate]
5 | < 1 µM | ≤ 1 µM | CC(c1nc(C(=O)O)cs1)c1cc(Cl)ccc1OCc1ccccc1 (stereo not shown) [Example 50]
6 | > 1 µM | ≤ 1 µM | O=C(O)Cc1coc(-c2cc(Cl)ccc2OCc2ccc(F)cc2F)n1 [Example 79, [2-(5-chloro-2-{[(2,4-difluorophenyl)-methyl]oxy}phenyl)-1,3-oxazol-4-yl]acetic acid]
7 | > 1 µM | ≤ 1 µM | O=C(O)Cc1coc(-c2cc(Cl)ccc2OCc2c(F)cc(F)cc2F)n1 [Example 80, [2-(5-chloro-2-{[(2,4,6-trifluorophenyl)methyl]oxy}phenyl)-1,3-oxazol-4-yl]acetic acid]
8 | > 1 µM | ≤ 1 µM | O=C(O)Cc1coc(-c2cc(Cl)ccc2OCc2ccc(F)cc2Cl)n1 [Example 81, [2-(5-chloro-2-{[(2-chloro-4-fluorophenyl)methyl]oxy}phenyl)-1,3-oxazol-4-yl]acetic acid]
9 | > 1 µM | ≤ 1 µM | O=C(Nc1ccccc1)c1csc(Cc2cc(Cl)ccc2OCc2ccccc2)n1 [Example 91, 2-({5-Chloro-2-[(phenylmethyl)oxy]phenyl}methyl)-N-phenyl-1,3-thiazole-4-carboxamide]
10 | > 1 µM | ≤ 1 µM | O=C(NCc1ccccc1)c1csc(Cc2cc(Cl)ccc2OCc2ccccc2)n1 [Example 92, 2-({5-Chloro-2-[(phenylmethyl)oxy]phenyl}methyl)-N-(phenylmethyl)-1,3-thiazole-4-carboxamide]
11 | > 1 µM | ≤ 1 µM | CC(C)CNC(=O)c1csc(Cc2cc(Cl)ccc2OCc2ccccc2)n1 [Example 93, 2-({5-Chloro-2-[(phenylmethyl)oxy]phenyl}methyl)-N-(2-methylpropyl)-1,3-thiazole-4-carboxamide]
12 | < 1 µM | ≤ 1 µM | O=C(NCc1ccccn1)c1csc(Cc2cc(Cl)ccc2OCc2ccccc2)n1 [Example 94, 2-({5-Chloro-2-[(phenylmethyl)oxy]phenyl}methyl)-N-(2-pyridinylmethyl)-1,3-thiazole-4-carboxamide]
13 | < 1 µM | ≤ 1 µM | O=C(NCc1cccnc1)c1csc(Cc2cc(Cl)ccc2OCc2ccccc2)n1 [Example 95, 2-({5-Chloro-2-[(phenylmethyl)oxy]phenyl}methyl)-N-(3-pyridinylmethyl)-1,3-thiazole-4-carboxamide]
14 | < 1 µM | ≤ 1 µM | O=C(NCc1ccncc1)c1csc(Cc2cc(Cl)ccc2OCc2ccccc2)n1 [Example 96, 2-({5-Chloro-2-[(phenylmethyl)oxy]phenyl}methyl)-N-(4-pyridinylmethyl)-1,3-thiazole-4-carboxamide]
15 | > 1 µM | ≤ 1 µM | CNC(=O)c1csc(Cc2cc(Cl)ccc2OCc2ccccc2)n1 [Example 97, 2-({5-Chloro-2-[(phenylmethyl)oxy]phenyl}methyl)-N-methyl-1,3-thiazole-4-carboxamide]
16 | ≤ 0.0316 µM | ≤ 1 µM | O=C(Nc1nnn[nH]1)c1csc(Cc2cc(Cl)ccc2OCc2ccccc2)n1 [Example 98, 2-({5-Chloro-2-[(phenylmethyl)oxy]phenyl}methyl)-N-1H-tetrazol-5-yl-1,3-thiazole-4-carboxamide]
17 | > 1 µM | ≤ 1 µM | O=C(Nc1ccccn1)c1csc(Cc2cc(Cl)ccc2OCc2ccccc2)n1 [Example 99, 2-({5-Chloro-2-[(phenylmethyl)oxy]phenyl}methyl)-N-2-pyridinyl-1,3-thiazole-4-carboxamide]
18 | < 1 µM | ≤ 0.0316 µM | O=C(NS(=O)(=O)c1ccccc1)c1csc(Cc2cc(Cl)ccc2OCc2ccc(F)cc2)n1 [Example 101, 2-[(5-Chloro-2-{[(4-fluorophenyl)methyl]-oxy}phenyl)methyl]-N-(phenylsulfonyl)-1,3-thiazole-4-carboxamide]
19 | < 1 µM | ≤ 0.0316 µM | O=C(NS(=O)(=O)c1ccccc1)c1csc(Cc2cc(Cl)ccc2OCc2ccc(F)cc2F)n1 [Example 102, 2-[(5-Chloro-2-{[(2,4-difluorophenyl)methyl]oxy}phenyl)methyl]-N-(phenylsulfonyl)-1,3-thiazole-4-carboxamide]
20 | < 1 µM | ≤ 0.0316 µM | O=C(NS(=O)(=O)c1ccccc1)c1csc(Cc2cc(Cl)ccc2OCc2ccccc2F)n1 [Example 103, 2-[(5-Chloro-2-{[(2-fluorophenyl)methyl]-oxy}phenyl)methyl]-N-(phenylsulfonyl)-1,3-thiazole-4-carboxamide]
21 | < 1 µM | ≤ 0.0316 µM | O=C(NS(=O)(=O)c1ccccc1)c1csc(Cc2cc(Cl)ccc2OCc2ccccc2Cl)n1 [Example 104, 2-[(5-Chloro-2-{[(2-chlorophenyl)methyl]-oxy}phenyl)methyl]-N-(phenylsulfonyl)-1,3-thiazole-4-carboxamide]
22 | < 1 µM | ≤ 0.0316 µM | O=C(NS(=O)(=O)c1ccccc1)c1csc(Cc2cc(Cl)ccc2OCc2ccc(Cl)cc2F)n1 [Example 105, 2-[(5-Chloro-2-{[(4-chloro-2-fluorophenyl)methyl]-oxy}phenyl)methyl]-N-(phenylsulfonyl)-1,3-thiazole-4-carboxamide]
23 | ≤ 0.0316 µM | ≤ 0.0316 µM | O=C(NS(=O)(=O)c1ccccc1)c1csc(Cc2cc(Cl)ccc2OCc2cc(F)c(F)cc2F)n1 [Example 106, 2-[(5-Chloro-2-{[(2,4,5-trifluorophenyl)methyl]oxy}phenyl)methyl]-N-(phenylsulfonyl)-1,3-thiazole-4-carboxamide]
24 | < 1 µM | ≤ 0.0316 µM | CS(=O)(=O)NC(=O)c1csc(Cc2cc(Cl)ccc2OCc2ccc(F)cc2)n1 [Example 107, 2-[(5-Chloro-2-{[(4-fluorophenyl)methyl]-oxy)phenyl)methyl]-N-(methylsulfonyl)-1,3-thiazole-4-carboxamide]
25 | ≤ 0.0316 µM | ≤ 0.0316 µM | Cc1noc(C)c1S(=O)(=O)NC(=O)c1csc(Cc2cc(Cl)ccc2OCc2ccccc2)n1 [Example 108, 2-({5-Chloro-2-[(phenylmethyl)oxy]-phenyl}methyl)-N-[(3,5-dimethyl-4-isoxazolyl)sulfonyl]-1,3-thiazole-4-carboxamide]
26 | > 1 µM | ≤ 1 µM | CC(C)(C)OC(=O)Nc1csc(Cc2cc(Cl)ccc2OCc2ccccc2)n1 [Example 110, 1,1-Dimethylethyl [2-({5-chloro-2-[(phenylmethyl)oxy]phenyl}methyl)-1,3-thiazol-4-yl]carbamate]
